Source: ChEMBL document CHEMBL1201862, “PubChem BioAssay data set” (2004)
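Exposure lasted 48 hours, with cells grown in 96-well plates and compounds tested at five concentrations. GI50 is the concentration that inhibits growth by half.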 Active and inactive are the calls of the source. No stated cut-off is given here; in the data, active = GI50 up to about 1.1 µM and inactive = higher.

Tests used:
Experiment in all cases: NCI tumour cell line growth inhibition, 48 h
SR = test system: SR
OVCAR-4 = test system: OVCAR-4
786-0 = test system: 786-0
HOP-62 = test system: HOP-62
SK-MEL-28 = test system: SK-MEL-28
HCT-15 = test system: HCT-15
T47D = test system: T47D
SN12C = test system: SN12C
MDA-MB-435 = test system: MDA-MB-435
SF-295 = test system: SF-295
Malme-3M = test system: Malme-3M
KM12 = test system: KM12
SNB-19 = test system: SNB-19
OVCAR-3 = test system: OVCAR-3
A549 = test system: A549
ACHN = test system: ACHN
IGROV-1 = test system: IGROV-1
MDA-N = test system: MDA-N
COLO 205 = test system: COLO 205
PC-3 = test system: PC-3
MDA-MB-231 = test system: MDA-MB-231
UACC-62 = test system: UACC-62
NCI-H23 = test system: NCI-H23
DU-145 = test system: DU-145
HCC 2998 = test system: HCC 2998
BT-549 = test system: BT-549
CAKI-1 = test system: CAKI-1
CCRF-CEM = test system: CCRF-CEM
HL-60 = test system: HL-60
NCI-H226 = test system: NCI-H226
SNB-75 = test system: SNB-75
U-251 = test system: U-251
A498 = test system: A498
MOLT-4 = test system: MOLT-4
NCI-H460 = test system: NCI-H460
SF-539 = test system: SF-539
RPMI-8226 = test system: RPMI-8226
SW-620 = test system: SW-620
Hs-578T = test system: Hs-578T
OVCAR-5 = test system: OVCAR-5
M14 = test system: M14
UACC-257 = test system: UACC-257
OVCAR-8 = test system: OVCAR-8
HOP-92 = test system: HOP-92
RXF 393 = test system: RXF 393
HT-29 = test system: HT-29
SK-MEL-2 = test system: SK-MEL-2
HCT-116 = test system: HCT-116
SK-OV-3 = test system: SK-OV-3
UO-31 = test system: UO-31
EKVX = test system: EKVX
MCF7 = test system: MCF7
TK-10 = test system: TK-10
K562 = test system: K562
NCI/ADR-RES = test system: NCI/ADR-RES
NCI-H522 = test system: NCI-H522
SK-MEL-5 = test system: SK-MEL-5
SF-268 = test system: SF-268
LOX IMVI = test system: LOX IMVI

CC(C)NC(=O)OCc1c(COC(=O)NC(C)C)c(-c2cc[n+](COC(=O)C(C)(C)C)cc2)n2c1CCC2
GI50 (SR): 19.1 µM (inactive) | GI50 (OVCAR-4): > 100 µM (inactive) | GI50 (786-0): > 100 µM (inactive) | GI50 (HOP-62): > 100 µM (inactive) | GI50 (SK-MEL-28): > 100 µM (inactive) | GI50 (HCT-15): > 100 µM | GI50 (T47D): > 100 µM (inactive) | GI50 (SN12C): > 100 µM (inactive) | GI50 (MDA-MB-435): > 100 µM (inactive) | GI50 (SF-295): > 100 µM (inactive) | GI50 (Malme-3M): > 100 µM (inactive) | GI50 (KM12): > 100 µM (inactive) | GI50 (SNB-19): > 100 µM (inactive) | GI50 (OVCAR-3): > 100 µM (inactive) | GI50 (A549): > 100 µM (inactive) | GI50 (ACHN): 61.9 µM (inactive) | GI50 (IGROV-1): > 100 µM (inactive) | GI50 (MDA-N): > 100 µM (inactive) | GI50 (COLO 205): > 100 µM (inactive) | GI50 (PC-3): > 100 µM (inactive) | GI50 (MDA-MB-231): > 100 µM (inactive) | GI50 (UACC-62): > 100 µM (inactive) | GI50 (NCI-H23): > 100 µM (inactive) | GI50 (DU-145): > 100 µM (inactive) | GI50 (HCC 2998): > 100 µM (inactive) | GI50 (BT-549): > 100 µM (inactive) | GI50 (CAKI-1): 60 µM (inactive) | GI50 (CCRF-CEM): > 100 µM (inactive) | GI50 (HL-60): > 100 µM (inactive) | GI50 (NCI-H226): > 100 µM (inactive) | GI50 (SNB-75): > 100 µM (inactive) | GI50 (U-251): > 100 µM (inactive) | GI50 (A498): > 100 µM (inactive) | GI50 (MOLT-4): > 100 µM (inactive) | GI50 (NCI-H460): > 100 µM (inactive) | GI50 (SF-539): > 100 µM (inactive) | GI50 (RPMI-8226): > 100 µM (inactive) | GI50 (SW-620): > 100 µM (inactive) | GI50 (Hs-578T): > 100 µM (inactive) | GI50 (OVCAR-5): > 100 µM (inactive) | GI50 (M14): > 100 µM (inactive) | GI50 (UACC-257): > 100 µM (inactive) | GI50 (OVCAR-8): > 100 µM (inactive) | GI50 (HOP-92): > 100 µM (inactive) | GI50 (RXF 393): > 100 µM (inactive) | GI50 (HT-29): > 100 µM (inactive) | GI50 (SK-MEL-2): > 100 µM (inactive) | GI50 (HCT-116): > 100 µM (inactive) | GI50 (SK-OV-3): > 100 µM (inactive) | GI50 (UO-31): > 100 µM (inactive) | GI50 (EKVX): > 100 µM (inactive) | GI50 (MCF7): > 100 µM (inactive) | GI50 (TK-10): > 100 µM (inactive) | GI50 (K562): > 100 µM (inactive) | GI50 (NCI/ADR-RES): > 100 µM (inactive) | GI50 (NCI-H522): > 100 µM (inactive) | GI50 (SK-MEL-5): > 100 µM (inactive) | GI50 (SF-268): > 100 µM (inactive) | GI50 (LOX IMVI): > 100 µM (inactive)

Cc1ccc(-c2cn3c(nc4ccccc43)c(C)n2)cc1
GI50 (SR): 21.5 µM (inactive) | GI50 (OVCAR-4): 59 µM (inactive) | GI50 (786-0): 25.8 µM (inactive) | GI50 (HOP-62): 30.8 µM (inactive) | GI50 (SK-MEL-28): 58.2 µM (inactive) | GI50 (HCT-15): 25.2 µM | GI50 (T47D): 4.2 µM (inactive) | GI50 (SN12C): 55.6 µM (inactive) | GI50 (MDA-MB-435): 16 µM (inactive) | GI50 (SF-295): > 58.1 µM (inactive) | GI50 (Malme-3M): 37.6 µM (inactive) | GI50 (KM12): > 100 µM (inactive) | GI50 (SNB-19): 66.2 µM (inactive) | GI50 (OVCAR-3): 48 µM (inactive) | GI50 (A549): 55.1 µM (inactive) | GI50 (ACHN): 30.3 µM (inactive) | GI50 (IGROV-1): 11.7 µM (inactive) | GI50 (MDA-N): 54.1 µM (inactive) | GI50 (COLO 205): 49.9 µM (inactive) | GI50 (PC-3): 46.6 µM (inactive) | GI50 (MDA-MB-231): > 94.6 µM (inactive) | GI50 (UACC-62): 23.5 µM (inactive) | GI50 (NCI-H23): 22.6 µM (inactive) | GI50 (DU-145): 46.5 µM (inactive) | GI50 (HCC 2998): > 100 µM (inactive) | GI50 (BT-549): 25.9 µM (inactive) | GI50 (CAKI-1): > 100 µM (inactive) | GI50 (CCRF-CEM): 85.3 µM (inactive) | GI50 (HL-60): 26.5 µM (inactive) | GI50 (NCI-H226): 34.3 µM (inactive) | GI50 (SNB-75): > 47 µM (inactive) | GI50 (U-251): 32.4 µM (inactive) | GI50 (A498): 19.8 µM (inactive) | GI50 (MOLT-4): 43.7 µM (inactive) | GI50 (NCI-H460): 26.7 µM (inactive) | GI50 (SF-539): > 54.3 µM (inactive) | GI50 (RPMI-8226): 30.7 µM (inactive) | GI50 (SW-620): > 100 µM (inactive) | GI50 (Hs-578T): 51.3 µM (inactive) | GI50 (OVCAR-5): 51.6 µM (inactive) | GI50 (M14): 39.5 µM (inactive) | GI50 (UACC-257): > 100 µM (inactive) | GI50 (OVCAR-8): 36 µM (inactive) | GI50 (HOP-92): 8.93 µM (inactive) | GI50 (RXF 393): 21.8 µM (inactive) | GI50 (HT-29): 24.4 µM (inactive) | GI50 (SK-MEL-2): > 43.4 µM (inactive) | GI50 (HCT-116): 32 µM (inactive) | GI50 (SK-OV-3): 7.66 µM (inactive) | GI50 (UO-31): 2.71 µM (inactive) | GI50 (EKVX): > 54 µM (inactive) | GI50 (MCF7): 0.578 µM (active) | GI50 (TK-10): 43.9 µM (inactive) | GI50 (K562): 43.5 µM (inactive) | GI50 (NCI/ADR-RES): 40.1 µM (inactive) | GI50 (NCI-H522): 31.2 µM (inactive) | GI50 (SK-MEL-5): 10.7 µM (inactive) | GI50 (SF-268): > 46.6 µM (inactive) | GI50 (LOX IMVI): 71.6 µM (inactive)
